Measurements published in US20190191690A1, “AGENTS AND DEVICE FOR COMBATING PESTS, IN […] AND MICE, AND METHOD FOR USING THE AGENTS” (priority 2016, published 2019).

Columns and labels:
mice [1] = assay: lethal dose in mice; type: in vivo
Experimental: The grayanotoxins have been described in exhaustive terms in literature and the chemical formulae are known. It has become evident that the effects of the substance occur even for low concentrations of the active agent. The lethal dose for grayanotoxin 1 in mice is approx. 5.1 mg per kg live weight and for grayanotoxin 3 approx. 4.9 mg per kg live weight. The substance as an active agent carrier may contain natural and/or synthetic carrier substances or substance mixtures. Natural carrier substances may be preferably selected from the group of natural oils, waxes and honey and their mixtures, emulsions, solutions or dispersions.

mice [2] = assay: experiments on development of resistance in mice; type: in vivo

| Molecule | lethal dose (mice [1]) | development of resistance (mice [2]) |
| --- | --- | --- |
| CC(=O)O[C@@H]1[C@H]2CC[C@H]3[C@@](C)(O)[C@@H]4C[C@H](O)C(C)(C)[C@@]4(O)[C@H](O)C[C@@]13C[C@@]2(C)O [grayanotoxin 1] | approx. 5.1 mg per kg live weight | – |
| grayanotoxin | – | rare for mice to develop a resistance |
| grayanotoxin 3 | approx. 4.9 mg per kg live weight | – |
